Target: T1, Esterase (Phocaeicola dorei, UniProt B6W2J6)
T1 sequence (B6W2J6 whole entry): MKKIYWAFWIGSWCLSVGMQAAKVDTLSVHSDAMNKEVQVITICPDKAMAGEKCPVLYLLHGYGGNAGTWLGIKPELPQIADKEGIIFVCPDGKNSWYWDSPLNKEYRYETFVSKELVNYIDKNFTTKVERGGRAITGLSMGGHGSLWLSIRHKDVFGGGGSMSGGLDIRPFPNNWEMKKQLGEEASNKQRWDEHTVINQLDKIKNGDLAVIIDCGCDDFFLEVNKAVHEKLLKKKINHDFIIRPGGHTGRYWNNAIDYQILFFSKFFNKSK
Assay: (§1) The drug is tested on Bacteroides dorei strain: DSM17855 for biotransformation. The drug concentrations were measured before and after a 12-h incubation by liquid-chromatography-coupled mass spectrometry (LC–MS)
Type: ADME
Parameters: dose 2 uM
Settings: 2 µM

SMILES	Bacterial Biotransformation
CC(=O)OCC(=O)[C@@]12N=C(C)O[C@@H]1C[C@H]1[C@@H]3CCC4=CC(=O)C=C[C@]4(C)[C@H]3[C@@H](O)C[C@@]12C [DEFLAZACORT]	Compound NOT metabolized
O=C(O)c1cc(/N=N/c2ccc(S(=O)(=O)Nc3ccccn3)cc2)ccc1O [SULFASALAZINE]	Compound NOT metabolized
CC(=O)SCC(Cc1ccccc1)C(=O)NCC(=O)OCc1ccccc1 (stereo not drawn) [RACECADOTRIL]	Compound NOT metabolized
CCOC(=O)C1=C(C)NC(C)=C(C(=O)OC)C1c1cccc([N+](=O)[O-])c1 (stereo not drawn) [NITRENDIPINE]	Compound NOT metabolized
C#C[C@]1(O)CC[C@H]2[C@@H]3CCC4=Cc5oncc5C[C@]4(C)[C@H]3CC[C@@]21C [DANAZOL]	Compound NOT metabolized

Target: T2, SGNH hydrolase-type esterase domain-containing protein (Phocaeicola dorei, UniProt B6VTE7)
T2 sequence (B6VTE7 whole entry): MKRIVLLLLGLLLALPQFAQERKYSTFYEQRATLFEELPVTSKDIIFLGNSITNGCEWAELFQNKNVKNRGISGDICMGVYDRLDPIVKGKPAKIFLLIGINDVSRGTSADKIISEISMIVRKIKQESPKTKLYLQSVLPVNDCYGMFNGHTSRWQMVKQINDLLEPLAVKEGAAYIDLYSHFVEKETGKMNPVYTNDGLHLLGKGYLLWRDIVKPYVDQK
Assay: as §1
Type: ADME
Parameters: dose 2 uM
Settings: 2 µM

SMILES	Bacterial Biotransformation
O=C(O)c1cc(/N=N/c2ccc(S(=O)(=O)Nc3ccccn3)cc2)ccc1O [SULFASALAZINE]	Compound NOT metabolized
CC(=O)SCC(Cc1ccccc1)C(=O)NCC(=O)OCc1ccccc1 (stereo not drawn) [RACECADOTRIL]	Compound NOT metabolized
CCOC(=O)C1=C(C)NC(C)=C(C(=O)OC)C1c1cccc([N+](=O)[O-])c1 (stereo not drawn) [NITRENDIPINE]	Compound NOT metabolized
C#C[C@]1(O)CC[C@H]2[C@@H]3CCC4=Cc5oncc5C[C@]4(C)[C@H]3CC[C@@]21C [DANAZOL]	Compound NOT metabolized

Target: T3, SGNH hydrolase-type esterase domain-containing protein (Phocaeicola dorei, UniProt B6W293)
T3 sequence (B6W293 whole entry): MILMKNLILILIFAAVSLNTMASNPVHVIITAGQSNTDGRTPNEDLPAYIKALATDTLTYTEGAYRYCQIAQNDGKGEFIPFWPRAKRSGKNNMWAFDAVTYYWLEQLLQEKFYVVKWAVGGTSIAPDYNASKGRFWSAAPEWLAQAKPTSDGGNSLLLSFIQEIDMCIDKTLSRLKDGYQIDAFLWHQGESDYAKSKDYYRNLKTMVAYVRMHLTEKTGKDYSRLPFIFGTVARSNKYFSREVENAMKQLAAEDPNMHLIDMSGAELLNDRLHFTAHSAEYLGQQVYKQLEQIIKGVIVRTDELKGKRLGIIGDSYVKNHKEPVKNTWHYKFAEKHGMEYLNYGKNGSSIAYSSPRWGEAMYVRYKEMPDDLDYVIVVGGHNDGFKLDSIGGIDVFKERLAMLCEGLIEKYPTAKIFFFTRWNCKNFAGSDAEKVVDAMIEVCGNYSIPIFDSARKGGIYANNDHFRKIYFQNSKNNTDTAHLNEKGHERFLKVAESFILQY
Assay: as §1
Type: ADME
Parameters: dose 2 uM
Settings: 2 µM

SMILES	Bacterial Biotransformation
O=C(O)c1cc(/N=N/c2ccc(S(=O)(=O)Nc3ccccn3)cc2)ccc1O [SULFASALAZINE]	Compound NOT metabolized
CC(=O)SCC(Cc1ccccc1)C(=O)NCC(=O)OCc1ccccc1 (stereo not drawn) [RACECADOTRIL]	Compound NOT metabolized
CCOC(=O)C1=C(C)NC(C)=C(C(=O)OC)C1c1cccc([N+](=O)[O-])c1 (stereo not drawn) [NITRENDIPINE]	Compound NOT metabolized
C#C[C@]1(O)CC[C@H]2[C@@H]3CCC4=Cc5oncc5C[C@]4(C)[C@H]3CC[C@@]21C [DANAZOL]	Compound NOT metabolized

Target: T4, Acyltransferase 3 domain-containing protein (Phocaeicola dorei, UniProt B6W2J3)
T4 sequence (B6W2J3 whole entry): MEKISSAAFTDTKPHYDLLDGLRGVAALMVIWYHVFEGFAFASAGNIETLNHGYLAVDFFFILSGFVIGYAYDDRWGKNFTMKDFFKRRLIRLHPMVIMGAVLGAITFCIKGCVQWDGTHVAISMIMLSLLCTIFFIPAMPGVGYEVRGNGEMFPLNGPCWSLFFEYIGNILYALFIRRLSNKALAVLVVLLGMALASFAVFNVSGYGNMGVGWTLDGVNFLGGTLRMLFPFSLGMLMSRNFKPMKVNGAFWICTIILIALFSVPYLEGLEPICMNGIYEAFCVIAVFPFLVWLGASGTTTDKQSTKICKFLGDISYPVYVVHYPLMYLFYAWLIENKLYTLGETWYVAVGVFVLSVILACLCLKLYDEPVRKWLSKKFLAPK
Assay: as §1
Type: ADME
Parameters: dose 2 uM
Settings: 2 µM

SMILES	Bacterial Biotransformation
CC(=O)OCC(=O)[C@@]12N=C(C)O[C@@H]1C[C@H]1[C@@H]3CCC4=CC(=O)C=C[C@]4(C)[C@H]3[C@@H](O)C[C@@]12C [DEFLAZACORT]	Compound NOT metabolized
O=C(O)c1cc(/N=N/c2ccc(S(=O)(=O)Nc3ccccn3)cc2)ccc1O [SULFASALAZINE]	Compound NOT metabolized
CC(=O)SCC(Cc1ccccc1)C(=O)NCC(=O)OCc1ccccc1 (stereo not drawn) [RACECADOTRIL]	Compound NOT metabolized
CCOC(=O)C1=C(C)NC(C)=C(C(=O)OC)C1c1cccc([N+](=O)[O-])c1 (stereo not drawn) [NITRENDIPINE]	Compound NOT metabolized
C#C[C@]1(O)CC[C@H]2[C@@H]3CCC4=Cc5oncc5C[C@]4(C)[C@H]3CC[C@@]21C [DANAZOL]	Compound NOT metabolized

Target: T5, Nitroreductase domain-containing protein (Phocaeicola dorei, UniProt B6W3P3)
T5 sequence (B6W3P3 whole entry): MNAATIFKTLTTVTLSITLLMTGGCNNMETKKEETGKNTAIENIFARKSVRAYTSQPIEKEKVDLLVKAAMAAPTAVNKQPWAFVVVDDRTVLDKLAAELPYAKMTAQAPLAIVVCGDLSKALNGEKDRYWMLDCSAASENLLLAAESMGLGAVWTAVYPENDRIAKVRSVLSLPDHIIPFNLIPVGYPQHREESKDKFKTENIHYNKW
Assay: as §1
Type: ADME
Parameters: dose 2 uM
Settings: 2 µM

SMILES	Bacterial Biotransformation
CC(=O)OCC(=O)[C@@]12N=C(C)O[C@@H]1C[C@H]1[C@@H]3CCC4=CC(=O)C=C[C@]4(C)[C@H]3[C@@H](O)C[C@@]12C [DEFLAZACORT]	Compound NOT metabolized
O=C(O)c1cc(/N=N/c2ccc(S(=O)(=O)Nc3ccccn3)cc2)ccc1O [SULFASALAZINE]	Compound NOT metabolized
CC(=O)SCC(Cc1ccccc1)C(=O)NCC(=O)OCc1ccccc1 (stereo not drawn) [RACECADOTRIL]	Compound NOT metabolized
CCOC(=O)C1=C(C)NC(C)=C(C(=O)OC)C1c1cccc([N+](=O)[O-])c1 (stereo not drawn) [NITRENDIPINE]	Compound metabolized
C#C[C@]1(O)CC[C@H]2[C@@H]3CCC4=Cc5oncc5C[C@]4(C)[C@H]3CC[C@@]21C [DANAZOL]	Compound NOT metabolized

Target: T6, Nitroreductase domain-containing protein (Phocaeicola dorei, UniProt B6VU18)
T6 sequence (B6VU18 whole entry): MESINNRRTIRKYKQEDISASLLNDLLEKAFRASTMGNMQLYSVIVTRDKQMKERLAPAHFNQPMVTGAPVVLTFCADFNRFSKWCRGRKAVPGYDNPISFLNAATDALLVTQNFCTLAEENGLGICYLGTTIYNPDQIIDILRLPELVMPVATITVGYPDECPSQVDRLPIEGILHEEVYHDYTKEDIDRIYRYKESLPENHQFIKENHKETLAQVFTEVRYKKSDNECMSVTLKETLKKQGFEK
Assay: as §1
Type: ADME
Parameters: dose 2 uM
Settings: 2 µM

SMILES	Bacterial Biotransformation
CC(=O)OCC(=O)[C@@]12N=C(C)O[C@@H]1C[C@H]1[C@@H]3CCC4=CC(=O)C=C[C@]4(C)[C@H]3[C@@H](O)C[C@@]12C [DEFLAZACORT]	Compound NOT metabolized
O=C(O)c1cc(/N=N/c2ccc(S(=O)(=O)Nc3ccccn3)cc2)ccc1O [SULFASALAZINE]	Compound NOT metabolized
CC(=O)SCC(Cc1ccccc1)C(=O)NCC(=O)OCc1ccccc1 (stereo not drawn) [RACECADOTRIL]	Compound NOT metabolized
CCOC(=O)C1=C(C)NC(C)=C(C(=O)OC)C1c1cccc([N+](=O)[O-])c1 (stereo not drawn) [NITRENDIPINE]	Compound metabolized
C#C[C@]1(O)CC[C@H]2[C@@H]3CCC4=Cc5oncc5C[C@]4(C)[C@H]3CC[C@@]21C [DANAZOL]	Compound NOT metabolized

Tested on: not listed separately
Assay: The drug is tested on Salmonella typhimurium strain: LT2 for biotransformation. The drug concentrations were measured before and after a 12-h incubation by liquid-chromatography-coupled mass spectrometry (LC–MS)
Settings: salmonella enterica subsp. enterica, 2 µM

SMILES	Bacterial Biotransformation
Clc1cccc(Cl)c1N=C1NCCN1 [CLONIDINE]	Compound NOT metabolized
CN/C(=N/CCSCc1nc[nH]c1C)NC#N [CIMETIDINE]	Compound NOT metabolized
COC(=O)[C@H](c1ccccc1Cl)N1CCc2sccc2C1.O=S(=O)(O)O [CLOPIDOGREL BISULFATE]	Compound NOT metabolized
O=C(O)COCCN1CCN(C(c2ccccc2)c2ccc(Cl)cc2)CC1 (stereo not drawn) [CETIRIZINE]	Compound metabolized

Tested on: not listed separately
Assay: The drug is tested on Bacteroides fragilis strain: T(B)9 for biotransformation. The drug concentrations were measured before and after a 12-h incubation by liquid-chromatography-coupled mass spectrometry (LC–MS)
Settings: 2 µM

SMILES	Bacterial Biotransformation
Clc1cccc(Cl)c1N=C1NCCN1 [CLONIDINE]	Compound metabolized
CN/C(=N/CCSCc1nc[nH]c1C)NC#N [CIMETIDINE]	Compound metabolized
COC(=O)[C@H](c1ccccc1Cl)N1CCc2sccc2C1.O=S(=O)(O)O [CLOPIDOGREL BISULFATE]	Compound metabolized
O=C(O)COCCN1CCN(C(c2ccccc2)c2ccc(Cl)cc2)CC1 (stereo not drawn) [CETIRIZINE]	Compound metabolized

Tested on: not listed separately
Assay: The drug is tested on Proteus penneri strain: ATCC35198 for biotransformation. The drug concentrations were measured before and after a 12-h incubation by liquid-chromatography-coupled mass spectrometry (LC–MS)
Settings: 2 µM

SMILES	Bacterial Biotransformation
Clc1cccc(Cl)c1N=C1NCCN1 [CLONIDINE]	Compound NOT metabolized
CN/C(=N/CCSCc1nc[nH]c1C)NC#N [CIMETIDINE]	Compound NOT metabolized
COC(=O)[C@H](c1ccccc1Cl)N1CCc2sccc2C1.O=S(=O)(O)O [CLOPIDOGREL BISULFATE]	Compound NOT metabolized
O=C(O)COCCN1CCN(C(c2ccccc2)c2ccc(Cl)cc2)CC1 (stereo not drawn) [CETIRIZINE]	Compound NOT metabolized

Tested on: not given
Settings: clostridioides difficile, 12 h, 2 µM

SMILES	Bacterial Biotransformation
Clc1cccc(Cl)c1N=C1NCCN1 [CLONIDINE]	Compound NOT metabolized
CN/C(=N/CCSCc1nc[nH]c1C)NC#N [CIMETIDINE]	Compound NOT metabolized

Tested on: not listed separately
Assay: The drug is tested on Eubacterium biforme strain: DSM3989 for biotransformation. The drug concentrations were measured before and after a 12-h incubation by liquid-chromatography-coupled mass spectrometry (LC–MS)
Settings: holdemanella biformis, 2 µM

SMILES	Bacterial Biotransformation
Clc1cccc(Cl)c1N=C1NCCN1 [CLONIDINE]	Compound NOT metabolized
COC(=O)[C@H](c1ccccc1Cl)N1CCc2sccc2C1.O=S(=O)(O)O [CLOPIDOGREL BISULFATE]	Compound NOT metabolized
O=C(O)COCCN1CCN(C(c2ccccc2)c2ccc(Cl)cc2)CC1 (stereo not drawn) [CETIRIZINE]	Compound metabolized

Target: T7, GDSL-like protein (Collinsella aerofaciens, UniProt A4E8S4)
T7 sequence (A4E8S4 whole entry): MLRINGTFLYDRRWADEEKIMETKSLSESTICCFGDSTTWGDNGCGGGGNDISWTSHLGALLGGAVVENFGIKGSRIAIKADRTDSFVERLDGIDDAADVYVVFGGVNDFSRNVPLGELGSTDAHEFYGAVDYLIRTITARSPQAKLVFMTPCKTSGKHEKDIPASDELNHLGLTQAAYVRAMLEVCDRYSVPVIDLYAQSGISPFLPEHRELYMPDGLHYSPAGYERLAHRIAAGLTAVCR
Assay: The drug is tested on Collinsella aerofaciens strain: ATCC25986 for biotransformation. The drug concentrations were measured before and after a 12-h incubation by liquid-chromatography-coupled mass spectrometry (LC–MS)
Type: ADME
Parameters: dose 2 uM
Settings: 2 µM

SMILES	Bacterial Biotransformation
CC(=O)SCC(Cc1ccccc1)C(=O)NCC(=O)OCc1ccccc1 (stereo not drawn) [RACECADOTRIL]	Compound metabolized
CCOC(=O)C1=C(C)NC(C)=C(C(=O)OC)C1c1cccc([N+](=O)[O-])c1 (stereo not drawn) [NITRENDIPINE]	Compound NOT metabolized
C#C[C@]1(O)CC[C@H]2[C@@H]3CCC4=Cc5oncc5C[C@]4(C)[C@H]3CC[C@@]21C [DANAZOL]	Compound NOT metabolized

Source: ChEMBL document CHEMBL5303573, “Mapping human microbiome drug metabolism by gut bacteria and their genes” (Nature, 2019)
